According to patent US10294202B2, “Pyrrolidinones as herbicides” (FMC Corporation, priority 2013, dated 2019):

What was measured:
giant foxtail = experiment: Test A pre-/postemergence herbicide test; assay type: in vivo, Setaria faberii
Method in brief: (§1)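 Seeds sown in loam soil/sand blend received a preemergence directed soil spray of test chemical in non-phytotoxic solvent with surfactant; postemergence plants (2–10 cm, one- to two-leaf stage) were sprayed with the same formulation. After about 10 days in greenhouse, injury was rated visually versus untreated controls, 0 (no effect) to 100 (complete control).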

wheat = experiment: Test A pre-/postemergence herbicide test; assay type: in vivo, Triticum aestivum
Method in brief: as §1

morningglory = experiment: Test A pre-/postemergence herbicide test; assay type: in vivo, Ipomoea spp.
Method in brief: as §1

sedge, umbrella = experiment: Test B flooded paddy test; assay type: in vivo, Cyperus difformis; settings: Flood, scale of 0 to 100 where 0 is no effect and 100 is complete control
Method in brief: (§2)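 Plants were grown to the 2-leaf stage, then pots were flooded to 3 cm above the soil and compound was applied directly into the paddy water, with that depth held throughout. After 13 to 15 days in a greenhouse, injury was rated visually against untreated controls on a 0 to 100 scale (100 = complete control).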

crabgrass, large = experiment: Test A pre-/postemergence herbicide test; assay type: in vivo, Digitaria sanguinalis
Method in brief: as §1

corn = experiment: Test A pre-/postemergence herbicide test; assay type: in vivo, Zea mays
Method in brief: as §1

barnyardgrass [1] = experiment: Test A pre-/postemergence herbicide test; assay type: in vivo, Echinochloa crus-galli
Method in brief: as §1

barnyardgrass [2] = experiment: Test B flooded paddy test; assay type: in vivo, Echinochloa crus-galli; settings: Flood, scale of 0 to 100 where 0 is no effect and 100 is complete control
Method in brief: as §2

pigweed = experiment: Test A pre-/postemergence herbicide test; assay type: in vivo, Amaranthus retroflexus
Method in brief: as §1

velvetleaf = experiment: Test A pre-/postemergence herbicide test; assay type: in vivo, Abutilon theophrasti
Method in brief: as §1

rice = experiment: Test B flooded paddy test; assay type: in vivo, Oryza sativa; settings: Flood, scale of 0 to 100 where 0 is no effect and 100 is complete control
Method in brief: as §2

ducksalad = experiment: Test B flooded paddy test; assay type: in vivo, Heteranthera limosa; settings: Flood, scale of 0 to 100 where 0 is no effect and 100 is complete control
Method in brief: as §2

[3] = Postemergence, 125 g ai/ha, 0 to 100 scale, 0 no effect, 100 complete control
[4] = Postemergence, 500 g ai/ha, 0 to 100 scale (0 no effect, 100 complete control)
[5] = Preemergence, 125 g ai/ha, visual rating on 0 to 100 scale (0 no effect, 100 complete control)
[6] = preemergence, 500 g ai/ha, 0 to 100 scale
[7] = preemergence, 500 g ai/ha, 0 to 100 scale (0 no effect, 100 complete control)
[8] = 125 g ai/ha, visual rating, 0 to 100 scale, 0 no effect, 100 complete control, approximately 10 days, preemergence
[9] = Postemergence, 1000 g ai/ha, 0 to 100 scale (0 no effect, 100 complete control)
[10] = Preemergence, 1000 g ai/ha, visual rating on 0 to 100 scale (0 no effect, 100 complete control), approx. 10 days

O=C1NCC(c2ccc(Cl)c(Cl)c2)C1C(=O)Nc1ccccc1OC(F)(F)F (racemic) [Compound 32]
Plant response rating, Foxtail, Giant (giant foxtail; [3]): 0
Plant response rating, Foxtail, Giant (giant foxtail; [4]): 40
Foxtail, Giant plant response rating (giant foxtail; [5]): 70
Plant response rating, Foxtail, Giant (giant foxtail; [6]): 80
Plant response rating, Wheat (wheat; [3]): 0
Plant response rating, Wheat (wheat; [4]): 0
Wheat plant response rating (wheat; [5]): 0
Plant response rating, Wheat (wheat; [6]): 0
Plant response rating, Morningglory (morningglory; [3]): 0
Plant response rating, Morningglory (morningglory; [4]): 0
Morningglory plant response rating (morningglory; [5]): 0
Plant response rating, Morningglory (morningglory; [6]): 0
Plant response rating, Sedge, Umbrella (sedge, umbrella; 250 g ai/ha): 0
Plant response rating, Crabgrass, Large (crabgrass, large; [3]): 0
Plant response rating, Crabgrass, Large (crabgrass, large; [4]): 30
Crabgrass, Large plant response rating (crabgrass, large; [5]): 80
Plant response rating, Crabgrass, Large (crabgrass, large; [6]): 80
Plant response rating, Corn (corn; [3]): 0
Plant response rating, Corn (corn; [4]): 0
Corn plant response rating (corn; [5]): 0
Plant response rating, Corn (corn; [6]): 0
Plant response rating, Barnyardgrass (barnyardgrass [1]; [3]): 0
Plant response rating, Barnyardgrass (barnyardgrass [1]; [4]): 0
Barnyardgrass plant response rating (barnyardgrass [1]; [5]): 0
Plant response rating, Barnyardgrass (barnyardgrass [1]; [7]): 0
Plant response rating, Barnyardgrass (barnyardgrass [2]; 250 g ai/ha): 0
Plant response rating, Pigweed (pigweed; [3]): 0
Plant response rating, Pigweed (pigweed; [4]): 0
Pigweed plant response rating (pigweed; [5]): 0
Plant response rating, Pigweed (pigweed; [6]): 0
Plant response rating, Velvetleaf (velvetleaf; [3]): 0
Plant response rating, Velvetleaf (velvetleaf; [4]): 0
Velvetleaf plant response rating (velvetleaf; [5]): 0
Plant response rating, Velvetleaf (velvetleaf; [6]): 0
Plant response rating, Rice (rice; 250 g ai/ha): 0
Plant response rating, Ducksalad (ducksalad; 250 g ai/ha): 50

O=C1NCC(c2ccc3ccccc3c2)C1C(=O)Nc1cccc(F)c1F (racemic) [Compound 116]
Plant response rating, Foxtail, Giant (giant foxtail; [8]): 0
Plant response rating, Foxtail, Giant (giant foxtail; [3]): 0
Foxtail, Giant plant response rating (0 to 100 scale, 0 is no effect, 100 is complete control) (giant foxtail; Postemergence, 500 g ai/ha): 20
Plant response rating, Foxtail, Giant (giant foxtail; [6]): 30
Plant response rating, Wheat (wheat; [8]): 0
Plant response rating, Wheat (wheat; [3]): 0
Wheat plant response rating (0 to 100 scale, 0 is no effect, 100 is complete control) (wheat; Postemergence, 500 g ai/ha): 0
Plant response rating, Wheat (wheat; [6]): 0
Plant response rating, Morningglory (morningglory; [8]): 0
Plant response rating, Morningglory (morningglory; [3]): 0
Morningglory plant response rating (0 to 100 scale, 0 is no effect, 100 is complete control) (morningglory; Postemergence, 500 g ai/ha): 0
Plant response rating, Morningglory (morningglory; [6]): 0
Plant response rating, Sedge, Umbrella (sedge, umbrella; 1000 g ai/ha): 0
Plant response rating, Crabgrass, Large (crabgrass, large; [8]): 70
Plant response rating, Crabgrass, Large (crabgrass, large; [3]): 20
Crabgrass, Large plant response rating (0 to 100 scale, 0 is no effect, 100 is complete control) (crabgrass, large; Postemergence, 500 g ai/ha): 30
Plant response rating, Crabgrass, Large (crabgrass, large; [6]): 80
Plant response rating, Corn (corn; [8]): 0
Plant response rating, Corn (corn; [3]): 0
Plant response rating, Corn (corn; [4]): 20
Plant response rating, Corn (corn; [6]): 0
Plant response rating, Barnyardgrass (barnyardgrass [1]; [8]): 0
Plant response rating, Barnyardgrass (barnyardgrass [1]; [4]): 40
Plant response rating, Barnyardgrass (barnyardgrass [1]; [7]): 50
Plant response rating, Barnyardgrass (barnyardgrass [2]; 1000 g ai/ha): 20
Plant response rating, Pigweed (pigweed; [8]): 0
Plant response rating, Pigweed (pigweed; [3]): 0
Pigweed plant response rating (0 to 100 scale, 0 is no effect, 100 is complete control) (pigweed; Postemergence, 500 g ai/ha): 0
Plant response rating, Pigweed (pigweed; [6]): 0
Plant response rating, Velvetleaf (velvetleaf; [8]): 0
Plant response rating, Velvetleaf (velvetleaf; [3]): 0
Velvetleaf plant response rating (0 to 100 scale, 0 is no effect, 100 is complete control) (velvetleaf; Postemergence, 500 g ai/ha): 0
Plant response rating, Velvetleaf (velvetleaf; [6]): 0
Plant response rating, Rice (rice; 1000 g ai/ha): 15
Plant response rating, Ducksalad (ducksalad; 1000 g ai/ha): 80

Cc1cccc(NC(=O)C2C(=O)NCC2c2ccc(F)c(F)c2)c1 (stereo not shown) [Compound 56]
Plant response rating, Foxtail, Giant (giant foxtail; [3]): 20
Plant response rating, Foxtail, Giant (giant foxtail; [4]): 60
Foxtail, Giant plant response rating (giant foxtail; [5]): 20
Plant response rating, Foxtail, Giant (giant foxtail; [6]): 50
Plant response rating, Wheat (wheat; [3]): 0
Plant response rating, Wheat (wheat; [4]): 0
Wheat plant response rating (wheat; [5]): 0
Plant response rating, Wheat (wheat; [6]): 0
Plant response rating, Morningglory (morningglory; [3]): 0
Plant response rating, Morningglory (morningglory; [4]): 0
Morningglory plant response rating (morningglory; [5]): 0
Plant response rating, Morningglory (morningglory; [6]): 0
Plant response rating, Sedge, Umbrella (sedge, umbrella; 250 g ai/ha): 0
Plant response rating, Crabgrass, Large (crabgrass, large; [3]): 50
Plant response rating, Crabgrass, Large (crabgrass, large; [4]): 80
Crabgrass, Large plant response rating (crabgrass, large; [5]): 60
Plant response rating, Crabgrass, Large (crabgrass, large; [6]): 90
Plant response rating, Corn (corn; [3]): 0
Plant response rating, Corn (corn; [4]): 0
Corn plant response rating (corn; [5]): 0
Plant response rating, Corn (corn; [6]): 0
Plant response rating, Barnyardgrass (barnyardgrass [1]; [3]): 0
Plant response rating, Barnyardgrass (barnyardgrass [1]; [4]): 50
Barnyardgrass plant response rating (barnyardgrass [1]; [5]): 0
Plant response rating, Barnyardgrass (barnyardgrass [1]; [7]): 40
Plant response rating, Barnyardgrass (barnyardgrass [2]; 250 g ai/ha): 0
Plant response rating, Pigweed (pigweed; [3]): 0
Plant response rating, Pigweed (pigweed; [4]): 0
Pigweed plant response rating (pigweed; [5]): 0
Plant response rating, Pigweed (pigweed; [6]): 0
Plant response rating, Velvetleaf (velvetleaf; [3]): 0
Plant response rating, Velvetleaf (velvetleaf; [4]): 0
Velvetleaf plant response rating (velvetleaf; [5]): 0
Plant response rating, Velvetleaf (velvetleaf; [6]): 0
Plant response rating, Rice (rice; 250 g ai/ha): 0
Plant response rating, Ducksalad (ducksalad; 250 g ai/ha): 0

O=C1NCC(c2ccccc2)C1C(=O)Nc1ccc(Br)cc1F (racemic) [Compound 84]
Plant response rating, Foxtail, Giant (giant foxtail; [3]): 0
Plant response rating, Foxtail, Giant (giant foxtail; [4]): 0
Foxtail, Giant plant response rating (giant foxtail; [5]): 0
Plant response rating, Foxtail, Giant (giant foxtail; [6]): 0
Plant response rating, Wheat (wheat; [3]): 0
Plant response rating, Wheat (wheat; [4]): 0
Wheat plant response rating (wheat; [5]): 0
Plant response rating, Wheat (wheat; [6]): 0
Plant response rating, Morningglory (morningglory; [3]): 0
Plant response rating, Morningglory (morningglory; [4]): 0
Morningglory plant response rating (morningglory; [5]): 0
Plant response rating, Morningglory (morningglory; [6]): 0
Plant response rating, Sedge, Umbrella (sedge, umbrella; 250 g ai/ha): 0
Plant response rating, Crabgrass, Large (crabgrass, large; [3]): 0
Plant response rating, Crabgrass, Large (crabgrass, large; [4]): 20
Crabgrass, Large plant response rating (crabgrass, large; [5]): 0
Plant response rating, Crabgrass, Large (crabgrass, large; [6]): 50
Plant response rating, Corn (corn; [3]): 0
Plant response rating, Corn (corn; [4]): 0
Corn plant response rating (corn; [5]): 0
Plant response rating, Corn (corn; [6]): 0
Plant response rating, Barnyardgrass (barnyardgrass [1]; [3]): 0
Plant response rating, Barnyardgrass (barnyardgrass [1]; [4]): 0
Barnyardgrass plant response rating (barnyardgrass [1]; [5]): 0
Plant response rating, Barnyardgrass (barnyardgrass [1]; [7]): 0
Plant response rating, Barnyardgrass (barnyardgrass [2]; 250 g ai/ha): 0
Plant response rating, Pigweed (pigweed; [3]): 0
Plant response rating, Pigweed (pigweed; [4]): 0
Pigweed plant response rating (pigweed; [5]): 0
Plant response rating, Pigweed (pigweed; [6]): 0
Plant response rating, Velvetleaf (velvetleaf; [3]): 0
Plant response rating, Velvetleaf (velvetleaf; [4]): 0
Velvetleaf plant response rating (velvetleaf; [5]): 0
Plant response rating, Velvetleaf (velvetleaf; [6]): 0
Plant response rating, Rice (rice; 250 g ai/ha): 0
Plant response rating, Ducksalad (ducksalad; 250 g ai/ha): 0

Cc1ccccc1NC(=O)C1C(=O)NCC1c1ccc(Cl)c(Cl)c1 (stereo not shown) [Compound 40]
Plant response rating, Foxtail, Giant (giant foxtail; [9]): 90
Plant response rating, Foxtail, Giant (giant foxtail; [10]): 90
Plant response rating, Wheat (wheat; [9]): 20
Plant response rating, Wheat (wheat; [10]): 20
Plant response rating, Morningglory (morningglory; [9]): 10
Plant response rating, Morningglory (morningglory; [10]): 0
Plant response rating, Sedge, Umbrella (sedge, umbrella; 250 g ai/ha): 0
Plant response rating, Crabgrass, Large (crabgrass, large; [9]): 90
Plant response rating, Crabgrass, Large (crabgrass, large; [10]): 90
Plant response rating, Corn (corn; [9]): 20
Plant response rating, Corn (corn; [10]): 30
Plant response rating, Barnyardgrass (barnyardgrass [1]; [9]): 80
Plant response rating, Barnyardgrass (barnyardgrass [1]; [10]): 90
Plant response rating, Barnyardgrass (barnyardgrass [2]; 250 g ai/ha): 0
Plant response rating, Pigweed (pigweed; [9]): 0
Plant response rating, Pigweed (pigweed; [10]): 0
Plant response rating, Velvetleaf (velvetleaf; [9]): 0
Plant response rating, Velvetleaf (velvetleaf; [10]): 0
Plant response rating, Rice (rice; 250 g ai/ha): 0
Plant response rating, Ducksalad (ducksalad; 250 g ai/ha): 0
